Measured values reported in patent US20230158040A1, “METHYLTHIONINIUM COMPOUNDS FOR USE IN THE TREATMENT OF HYPOXEMIA” (WisTa Laboratories Ltd., priority 2020, published 2023).

How the values were obtained:
[1] = Oxygen saturation (SpO2) in clinical trial subjects with low oxygen saturation, pre-dose vs 4 hrs after a single dose; assay type: in vivo, human
Excerpt: The present inventors have used data available for patients participating in clinical trials to determine whether LMT enhances oxygen saturation of blood. Data were available for 18 subjects with oxygen saturation <94% at baseline (lower limit of normal range is
These patients recorded a variety of respiratory or other conditions of various degrees of severity which it was suspected may have contributed to the detected hypoxemia, including sleep apnoea, insomnia (which may be indicative of Paroxysmal nocturnal dyspnea or paroxysmal nocturnal dyspnoea), asbestosis, oedema, asthma, bronchitis, allergies, angioedema, pneumonia, acute myocardial infarction/ hypertension, Coronary artery disease with angioplasty and stent insertion, transient ischaemic attacks (TIA), hypothyroidism, diabetes, syncope, tachycardia and sepsis. […]

metHb = metHb levels in clinical trial subjects receiving LMTM; assay type: in vivo, human
Excerpt: In order to understand this effect further the inventors investigated whether the low oxygen saturation in these patients is due to elevation in metHb levels. There was no difference in metHb levels at baseline between subjects with low SpO2 and those with SpO2 levels in the normal range.
Therefore, LMTM is able to act on haemoglobin over a range of doses in such a way as to enhance oxygen saturation in the blood by a novel mechanism unrelated to its known effects on metHb.

[2] = LMT at high concentrations, oral doses in the range 150-250 mg/day

Row | metHb levels (metHb; LMTM at higher doses / high dosages over a period of time, FIG. 3) | metHb levels (metHb; [2]) | SMILES | oxygen saturation at 4 hours ([1]; single dose of LMT at 4 mg and ~100 mg (mean of 75, 100, 125 mg), 18 subjects with oxygen saturation <94% at baseline, pre-dose vs 4 hrs post-dose) | SpO2 levels [1, 2]
1 | systematically increases |  | CN(C)c1ccc2c(c1)Sc1cc(N(C)C)ccc1N2 [LMTM, leuco-methylthioninium bis(hydromethanesulfonate)] | significantly increased | 
2 |  | measurable increase | CN(C)c1ccc2c(c1)Sc1cc(N(C)C)ccc1N2 [LMT] |  | increase SpO2 levels
